# Source: patent publication US10827753B2, “Compositions and methods for controlling nematodes” (Monsanto Technology LLC, priority 2007, dated 2020)
# Marks after values point to notes of the source that are not given here.
# Experiments:
# [1] = system: CD-1/Swiss derived albino mice; type: in vivo; settings: 500 mg/kg oral, three female mice, observed up to 14 days
# Protocol: Acute oral toxicity testing was performed in mice in accordance with test method P203.UDP, as administered by Eurofins/Product Safety Laboratories (Dayton, N.J.). CD-1/Swiss derived albino mice were obtained and group housed in suspended solid bottom caging. The mice were fed rodent chow and filtered tap water was supplied ad libitum. Following acclimation to the laboratory setting, a group of animals was fasted overnight by removing food from the cages. After the fasting period, three female mice were selected based on vitality and initial body weights. The individual compound doses were calculated from these body weights.
# The test substance was prepared as a 1% (50 mg/kg) or 5% (500 mg/kg) weight to weight (w/w) mixture in a 0.5% w/w solution of carboxymethylcellulose (CMC) in distilled water. A tissue homogenizer was used to create a homogeneous mixture. A dose of 50 or 500 mg/kg was administered to three healthy mice per dose level by oral intubation using a ball-tipped gavage needle attached to a syringe. After administration, the animals were returned to their cages, and feed was replaced immediately after dosing.
# Body weights were recorded prior to initiation and on Days 7 and 14 or a soon as possible after death.
# [2] = system: Meloidogyne incognita (RKN); assay: Seed treatment test of root knot nematode on cucumber plants; type: in vivo
# Protocol: (§1) For a given concentration the chemical is dissolved in 500 ul of acetone and one gram of cucumber seed (RKN test) or soybean seed (SCN test) is added (e.g., 20 mg active ingredient in 500 ul acetone plus 1 gram of seed). The seed solutions are agitated until all seeds were thoroughly covered with the chemical solution. The acetone is then allowed to evaporate by air drying the seeds. The seeds are planted in 2-inch pots containing sandy soil and then the pots are inoculated with 1000 Meloidogyne incognita (RKN) or 1000 Heterodera glycines (SCN) eggs per pot three days after planting. Plants are rated for galling 14 days after egg inoculation for RKN or 28 days after egg inoculation for SCN.
# [3] = system: Meloidogyne incognita; assay: M. incognita miniaturized greenhouse assay on cucumber seedlings (root galling); type: in vivo; settings: 8 ppm; average of triplicate gall rating, scale 0-3 (% root mass galled)
# Outline: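 Compound in acetone/Triton X100 stock (5 mg/mL) diluted into water with 0.015% Triton X100 and applied to sand-planted sprouted cucumber seedlings; inoculated with 500 M. incognita eggs two days after planting. Roots harvested 10–12 days later; galling scored 0–3 by % root mass galled, averaged over triplicates, plus visual root phytotoxicity rating.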
# [4] = system: sting (Belonolaimus longicaudatus) nematodes; assay: Sting nematode bench top soil assay; type: in vivo
# Protocol: Populations of sting (Belonolaimus longicaudatus) nematodes are maintained on St. Augustine turf grass on soil in 15-cm pots. At test initiation the turf is removed from the pots and the soil containing nematode eggs, juveniles, and adults is subdivided into pots each containing a volume of 125 cm^3′ The compounds to be tested are dissolved in 3 ml of acetone using 3, 6, or 15 mg to achieve equivalent surface area application rates of 2, 4, or 10 kg/ha, respectively. The 3 ml acetone stock solution is added to 30 ml of water, and 5 ml of that solution is used to drench each of 6 replicate test pots prepared as described above. The treated pots containing nematodes are incubated in the laboratory at ambient temperature of approximately 25° C. After 3 days the soil from each pot is washed onto a modified Baermann apparatus comprised of a screen supporting a layer of filter paper on which the soil sample is placed and set in a dish of water. The samples are then incubated at 25° C. for 24 hours to allow the live nematodes to migrate through the paper and screen and into a water reservoir to be collected for counting with a light microscope. Nematodes that have been killed or immobilized by the test compounds are not able to migrate into the reservoir.
# [5] = system: mice; settings: cited from earlier work
# [6] = system: Heterodera glycines (SCN); assay: Seed treatment test of soybean cyst nematode on soybean plants; type: in vivo; settings: test a
# Protocol: as §1
Compound,"mortality, signs of gross toxicity and behavioral changes [1]","percent control (galling reduction) relative to the control blank treatment ([2]; 20 mg ai/gram seed, cucumber seeds) [%]",8 ppm gall ratings [3],Number of nematodes recovered from treated soil after 3 days incubation with the compound ([4]; 2 kg/ha),Number of nematodes recovered from treated soil after 3 days incubation with the compound ([4]; 4 kg/ha),Number of nematodes recovered from treated soil after 3 days incubation with the compound ([4]; 10 kg/ha),oral LD50 in mice [5] [mg/kg],"percent control (galling reduction) relative to the control blank treatment ([2]; 10 mg ai/gram seed, cucumber seeds (positive control)) [%]",percent cyst reduction relative to control blank treatment ([6]; 0.375 mg al/gram seed),percent cyst reduction relative to control blank treatment ([6]; 1.5 mg al/gram seed)
Fc1ccc(-c2cnc(-c3cccs3)o2)cc1 [compound 4775],"all animals survived, gained body weight, and appeared active and healthy",77,0 (0=0-5%),15,7,4,–,–,–,–
abamectin,–,–,–,–,–,–,13.6,84,−14^a percent,−24^a percent
